{
  "source": "paper PMC5218480",
  "about": "(PLoS ONE, 2017)",
  "tested_on": "MV-4-11 cells",
  "assay": "Gene expression microarray analysis (Affymetrix PrimeView) and GSEA",
  "assay_type": "cell-based, human",
  "parameters": "RFU PODN (11730768_x_at) / Fold change /veh PODN (11730768_x_at) / RFU LINC00158 (11744669_a_at) / Fold change /veh LINC00158 (11744669_a_at) / RFU DUSP10 (11751237_a_at) / Fold change /veh DUSP10 (11751237_a_at) / RFU ID3 (11757404_x_at) / Fold change /veh ID3 (11757404_x_at) / RFU PLEKHG5 (11737974_s_at) / Fold change /veh PLEKHG5 (11737974_s_at) / RFU LRRC4B (11730491_at) / Fold change /veh LRRC4B (11730491_at) / RFU GIMAP4 (11747438_a_at) / Fold change /veh GIMAP4 (11747438_a_at) / RFU KRT8 (11758183_x_at) / Fold change /veh KRT8 (11758183_x_at) / RFU CNN1 (11734310_a_at) / Fold change /veh CNN1 (11734310_a_at) / RFU VPS37D (11726825_at) / Fold change /veh VPS37D (11726825_at) / RFU C10orf10 (11716522_x_at) / Fold change /veh C10orf10 (11716522_x_at) / RFU KIR2DL2 /// KIR2DL4 /// KIR2DL5A /// KIR2DL5B /// KIR2DS1 /// KIR2DS2 /// KIR2DS3 /// KIR2DS4 /// KIR3DL3 /// KIR3DL3 /// KIR3DS1 (11738374_at) / Fold change /veh KIR2DL2 /// KIR2DL4 /// KIR2DL5A /// KIR2DL5B /// KIR2DS1 /// KIR2DS2 /// KIR2DS3 /// KIR2DS4 /// KIR3DL3 /// KIR3DL3 /// KIR3DS1 (11738374_at) / RFU C1QL1 (11718748_at) / Fold change /veh C1QL1 (11718748_at) / RFU TMPRSS4 (11747572_a_at) / Fold change /veh TMPRSS4 (11747572_a_at) / RFU HAMP (11756126_x_at) / Fold change /veh HAMP (11756126_x_at) / RFU RNFT2 (11725882_a_at) / Fold change /veh RNFT2 (11725882_a_at) / RFU NR4A2 (11747474_a_at) / Fold change /veh NR4A2 (11747474_a_at) / RFU ABCC12 (11746883_a_at) / Fold change /veh ABCC12 (11746883_a_at) / RFU TMEM136 (11760407_x_at) / Fold change /veh TMEM136 (11760407_x_at) / RFU CLDN22 /// WWC2 (11732394_at) / Fold change /veh CLDN22 /// WWC2 (11732394_at) / RFU HLA-DPB1 (11760878_x_at) / Fold change /veh HLA-DPB1 (11760878_x_at) / RFU SPINT1 (11716480_a_at) / Fold change /veh SPINT1 (11716480_a_at) / RFU GAP43 (11754022_s_at) / Fold change /veh GAP43 (11754022_s_at) / RFU A4GNT (11735810_at) / Fold change /veh A4GNT (11735810_at) / RFU PRB3 (11715151_x_at) / Fold change /veh PRB3 (11715151_x_at) / RFU TUBB4B (11761932_at) / Fold change /veh TUBB4B (11761932_at) / RFU CAPN14 (11732068_a_at) / Fold change /veh CAPN14 (11732068_a_at) / RFU TMCC2 (11721928_a_at) / Fold change /veh TMCC2 (11721928_a_at) / RFU IRGQ (11745062_a_at) / Fold change /veh IRGQ (11745062_a_at) / RFU FAM174B (11720279_a_at) / Fold change /veh FAM174B (11720279_a_at) / RFU TMPRSS4 (11748680_a_at) / Fold change /veh TMPRSS4 (11748680_a_at) / RFU FAM212B (11763350_a_at) / Fold change /veh FAM212B (11763350_a_at) / RFU PLEKHG5 (11743358_a_at) / Fold change /veh PLEKHG5 (11743358_a_at) / RFU ZSCAN30 (11745921_a_at) / Fold change /veh ZSCAN30 (11745921_a_at) / RFU CMKLR1 (11741424_a_at) / Fold change /veh CMKLR1 (11741424_a_at) / RFU LOC101060620 /// MAPK8IP1 (11723275_at) / Fold change /veh LOC101060620 /// MAPK8IP1 (11723275_at) / RFU SPTSSB (11747773_x_at) / Fold change /veh SPTSSB (11747773_x_at) / RFU PRSS12 (11739890_at) / Fold change /veh PRSS12 (11739890_at) / RFU BIN1 (11741810_x_at) / Fold change /veh BIN1 (11741810_x_at) / RFU WNT11 (11732464_a_at) / Fold change /veh WNT11 (11732464_a_at) / RFU C10orf10 (11716521_a_at) / Fold change /veh C10orf10 (11716521_a_at) / RFU C5orf56 (11738089_at) / Fold change /veh C5orf56 (11738089_at) / RFU CYB561 (11721691_x_at) / Fold change /veh CYB561 (11721691_x_at) / RFU ANKRD19P (11752326_a_at) / Fold change /veh ANKRD19P (11752326_a_at) / RFU OR2T12 /// OR2T33 /// OR2T8 (11738714_s_at) / Fold change /veh OR2T12 /// OR2T33 /// OR2T8 (11738714_s_at) / RFU VCAN (11748164_a_at) / Fold change /veh VCAN (11748164_a_at) / RFU JSRP1 (11732532_at) / Fold change /veh JSRP1 (11732532_at) / RFU KRTAP10-11 (11738290_x_at) / Fold change /veh KRTAP10-11 (11738290_x_at) / RFU MYO3A (11730013_a_at) / Fold change /veh MYO3A (11730013_a_at) / RFU EBF3 (11725865_a_at) / Fold change /veh EBF3 (11725865_a_at) / RFU CAMK2N1 (11719241_x_at) / Fold change /veh CAMK2N1 (11719241_x_at) / RFU C5orf56 (11738088_a_at) / Fold change /veh C5orf56 (11738088_a_at) / RFU OLFML3 (11715873_a_at) / Fold change /veh OLFML3 (11715873_a_at) / RFU LOC100653217 /// NTM (11731650_a_at) / Fold change /veh LOC100653217 /// NTM (11731650_a_at) / RFU MAPK11 (11762145_a_at) / Fold change /veh MAPK11 (11762145_a_at) / RFU FIZ1 (11724087_x_at) / Fold change /veh FIZ1 (11724087_x_at) / RFU OASL (11726364_x_at) / Fold change /veh OASL (11726364_x_at) / RFU SOX15 (11748057_x_at) / Fold change /veh SOX15 (11748057_x_at) / RFU CD79A (11719716_a_at) / Fold change /veh CD79A (11719716_a_at) / RFU HIST1H1D (11736915_at) / Fold change /veh HIST1H1D (11736915_at) / RFU CASKIN2 (11723855_a_at) / Fold change /veh CASKIN2 (11723855_a_at) / RFU LOC730098 (11760151_x_at) / Fold change /veh LOC730098 (11760151_x_at) / RFU OR4N2 (11742367_at) / Fold change /veh OR4N2 (11742367_at) / RFU PRRT2 (11749266_a_at) / Fold change /veh PRRT2 (11749266_a_at) / RFU SNX32 (11753110_a_at) / Fold change /veh SNX32 (11753110_a_at) / RFU CDHR5 (11726645_a_at) / Fold change /veh CDHR5 (11726645_a_at) / RFU RCAN1 (11760418_a_at) / Fold change /veh RCAN1 (11760418_a_at) / RFU FAM167A (11723789_a_at) / Fold change /veh FAM167A (11723789_a_at) / RFU FAM26E (11764081_at) / Fold change /veh FAM26E (11764081_at) / RFU ISYNA1 (11749810_s_at) / Fold change /veh ISYNA1 (11749810_s_at) / RFU ACY1 (11761880_at) / Fold change /veh ACY1 (11761880_at) / RFU 11764098_at / Fold change /veh 11764098_at / RFU SAMD14 (11745864_x_at) / Fold change /veh SAMD14 (11745864_x_at) / RFU NPB (11741838_a_at) / Fold change /veh NPB (11741838_a_at) / RFU TMPRSS6 (11731388_a_at) / Fold change /veh TMPRSS6 (11731388_a_at) / RFU KRTAP10-2 (11738614_at) / Fold change /veh KRTAP10-2 (11738614_at) / RFU ARHGAP8 /// PRR5-ARHGAP8 (11727945_x_at) / Fold change /veh ARHGAP8 /// PRR5-ARHGAP8 (11727945_x_at) / RFU KRTAP5-7 /// NADSYN1 (11734609_at) / Fold change /veh KRTAP5-7 /// NADSYN1 (11734609_at) / RFU RASL12 (11751679_a_at) / Fold change /veh RASL12 (11751679_a_at) / RFU CDKN2B (11736163_a_at) / Fold change /veh CDKN2B (11736163_a_at) / RFU PRF1 (11729649_at) / Fold change /veh PRF1 (11729649_at) / RFU, ZNF638 /// ZNF638-IT1 / Fold change vs veh, ZNF638 /// ZNF638-IT1 / RFU, PANK3 / Fold change vs veh, PANK3 / RFU, SH3YL1 / Fold change vs veh, SH3YL1 / RFU, ZEB2 / Fold change vs veh, ZEB2 / RFU, NRIP1 / Fold change vs veh, NRIP1 / RFU, PTTG1IP / Fold change vs veh, PTTG1IP / RFU, CAPN2 / Fold change vs veh, CAPN2 / RFU, MED14 / Fold change vs veh, MED14 / RFU, SNORA58 / Fold change vs veh, SNORA58 / RFU, C1orf63 / Fold change vs veh, C1orf63 / RFU, LRRFIP1 / Fold change vs veh, LRRFIP1 / RFU, NDUFAF7 / Fold change vs veh, NDUFAF7 / RFU, SLC12A2 / Fold change vs veh, SLC12A2 / RFU, IBTK / Fold change vs veh, IBTK / RFU, ESF1 / Fold change vs veh, ESF1 / Fold change vs veh, TMEM50B / RFU, TAOK1 / Fold change vs veh, TAOK1 / RFU, ACBD3 / Fold change vs veh, ACBD3 / RFU, TMA16 / Fold change vs veh, TMA16 / RFU, RWDD3 / Fold change vs veh, RWDD3 / RFU, BCAT1 / Fold change vs veh, BCAT1 / RFU, EDEM3 / Fold change vs veh, EDEM3 / RFU, TMEM33 / Fold change vs veh, TMEM33 / RFU, WDR75 / Fold change vs veh, WDR75 / RFU, AHCTF1 / Fold change vs veh, AHCTF1 / RFU, TFRC / Fold change vs veh, TFRC / RFU, ZDHHC17 / Fold change vs veh, ZDHHC17 / RFU, NOM1 / Fold change vs veh, NOM1 / RFU, ARL8B / Fold change vs veh, ARL8B / RFU, ZBTB11 / Fold change vs veh, ZBTB11 / RFU, TAMM41 / Fold change vs veh, TAMM41 / RFU, KIAA1704 /// LOC100996395 / Fold change vs veh, KIAA1704 /// LOC100996395 / RFU, ING1 / Fold change vs veh, ING1 / RFU, TRMT61B / Fold change vs veh, TRMT61B / RFU, FUBP3 / Fold change vs veh, FUBP3 / RFU, TP53 / Fold change vs veh, TP53 / RFU, TNKS2 / Fold change vs veh, TNKS2 / RFU, ZFP14 / Fold change vs veh, ZFP14 / RFU, ACTR2 / Fold change vs veh, ACTR2 / RFU, PPP3R1 / Fold change vs veh, PPP3R1 / RFU, PIK3R1 / Fold change vs veh, PIK3R1 / RFU, HNRNPA1 / Fold change vs veh, HNRNPA1 / RFU, RNF170 / Fold change vs veh, RNF170 / RFU, ZNF28 / Fold change vs veh, ZNF28 / RFU, RNGTT / Fold change vs veh, RNGTT / RFU, OGT / Fold change vs veh, OGT / RFU, BRD1 / Fold change vs veh, BRD1 / RFU, MARS / Fold change vs veh, MARS / RFU, ZNF655 / Fold change vs veh, ZNF655 / RFU, FAHD1 / Fold change vs veh, FAHD1 / RFU, BDP1 / Fold change vs veh, BDP1 / RFU, LRRCC1 / Fold change vs veh, LRRCC1 / RFU, ARID1A / Fold change vs veh, ARID1A / RFU, ZNF146 / Fold change vs veh, ZNF146 / RFU, ZNF330 / Fold change vs veh, ZNF330 / RFU, GPN3 / Fold change vs veh, GPN3 / RFU, C9orf123 / Fold change vs veh, C9orf123 / RFU, N4BP2L2 / Fold change vs veh, N4BP2L2 / RFU, ARFIP1 / Fold change vs veh, ARFIP1 / RFU, FAM179B / Fold change vs veh, FAM179B / RFU, BCL10 / Fold change vs veh, BCL10 / RFU, UHRF1BP1L / Fold change vs veh, UHRF1BP1L / RFU, BET1 / Fold change vs veh, BET1 / RFU, CNOT2 / Fold change vs veh, CNOT2 / RFU, ZNF268 / Fold change vs veh, ZNF268 / Fold change vs veh, ZNF507 / RFU, DGCR2 / Fold change vs veh, DGCR2 / RFU, WDSUB1 / Fold change vs veh, WDSUB1 / Fold change vs veh, HSP90B1 /// MIR3652 / RFU, ADSS / Fold change vs veh, ADSS / RFU, GK / Fold change vs veh, GK / RFU, ZNF148 / Fold change vs veh, ZNF148 / RFU, TAF9 / Fold change vs veh, TAF9 / RFU, SLC1A5 / Fold change vs veh, SLC1A5 / RFU, SLMO2 / Fold change vs veh, SLMO2 / RFU, ABCC4 / Fold change vs veh, ABCC4 / RFU, LOC101060439 /// RAP1B / Fold change vs veh, LOC101060439 /// RAP1B / RFU, RFX7 / Fold change vs veh, RFX7 / RFU, GTPBP10 / Fold change vs veh, GTPBP10 / RFU, CNEP1R1 / Fold change vs veh, CNEP1R1 / RFU, BIVM-ERCC5 /// ERCC5 / Fold change vs veh, BIVM-ERCC5 /// ERCC5 / RFU, ILF3 / Fold change vs veh, ILF3 / RFU 11762660_at / Fold change /veh 11762660_at / RFU VCAN (11757783_s_at) / Fold change /veh VCAN (11757783_s_at) / RFU DDX43 (11728927_at) / Fold change /veh DDX43 (11728927_at) / RFU KRT8 (11758188_x_at) / Fold change /veh KRT8 (11758188_x_at) / RFU NKD1 (11759106_at) / Fold change /veh NKD1 (11759106_at) / RFU SRD5A1 (11742802_a_at) / Fold change /veh SRD5A1 (11742802_a_at) / RFU TPSAB1 /// TPSB2 (11721975_s_at) / Fold change /veh TPSAB1 /// TPSB2 (11721975_s_at) / RFU GSTM3 (11746129_a_at) / Fold change /veh GSTM3 (11746129_a_at) / RFU IL23R (11737362_x_at) / Fold change /veh IL23R (11737362_x_at) / RFU TMEM51 (11727254_a_at) / Fold change /veh TMEM51 (11727254_a_at) / RFU PIWIL2 (11732686_x_at) / Fold change /veh PIWIL2 (11732686_x_at) / RFU ORM1 (11744905_x_at) / Fold change /veh ORM1 (11744905_x_at) / RFU CCDC152 (11743942_at) / Fold change /veh CCDC152 (11743942_at) / RFU ECM1 (11717891_a_at) / Fold change /veh ECM1 (11717891_a_at) / RFU IL23R (11748794_a_at) / Fold change /veh IL23R (11748794_a_at) / RFU TNFAIP8L3 (11732012_x_at) / Fold change /veh TNFAIP8L3 (11732012_x_at) / RFU MBOAT4 (11741988_at) / Fold change /veh MBOAT4 (11741988_at) / RFU 11764193_at / Fold change /veh 11764193_at / RFU TMEM53 (11763286_at) / Fold change /veh TMEM53 (11763286_at) / RFU MAGEB2 (11727129_at) / Fold change /veh MAGEB2 (11727129_at) / RFU TMEM200A (11744735_a_at) / Fold change /veh TMEM200A (11744735_a_at) / RFU CCDC152 (11751479_a_at) / Fold change /veh CCDC152 (11751479_a_at) / RFU FAM211A (11726209_a_at) / Fold change /veh FAM211A (11726209_a_at) / RFU RGS16 (11746705_a_at) / Fold change /veh RGS16 (11746705_a_at) / RFU VCAN (11755009_s_at) / Fold change /veh VCAN (11755009_s_at) / RFU RHOB (11743442_s_at) / Fold change /veh RHOB (11743442_s_at) / RFU RGS16 (11720943_a_at) / Fold change /veh RGS16 (11720943_a_at) / RFU RGS16 (11720944_at) / Fold change /veh RGS16 (11720944_at) / RFU, VPS4B / Fold change vs veh, VPS4B / RFU, CREB1 / Fold change vs veh, CREB1 / RFU, DNAJC13 / Fold change vs veh, DNAJC13 / RFU, GNAQ / Fold change vs veh, GNAQ / RFU, CDK5R1 / Fold change vs veh, CDK5R1 / RFU, ZRANB3 / Fold change vs veh, ZRANB3 / RFU, CUL4A / Fold change vs veh, CUL4A / RFU, CCNY / Fold change vs veh, CCNY / RFU, UFL1 / Fold change vs veh, UFL1 / RFU, COG3 / Fold change vs veh, COG3 / RFU, DIAPH2 / Fold change vs veh, DIAPH2 / RFU, SKA2 / Fold change vs veh, SKA2 / RFU, AFF3 / Fold change vs veh, AFF3 / RFU, LMF1 / Fold change vs veh, LMF1 / RFU, IPO11 / Fold change vs veh, IPO11 / RFU, DFFB / Fold change vs veh, DFFB / RFU, FOXP1 / Fold change vs veh, FOXP1 / RFU, CARD8 / Fold change vs veh, CARD8 / RFU, STRN3 / Fold change vs veh, STRN3 / RFU, ADK / Fold change vs veh, ADK / RFU, RASSF2 / Fold change vs veh, RASSF2 / RFU, WIPF1 / Fold change vs veh, WIPF1 / RFU, LARP1B / Fold change vs veh, LARP1B / RFU, RASA1 / Fold change vs veh, RASA1 / RFU, RB1 / Fold change vs veh, RB1 / RFU, PPFIA1 / Fold change vs veh, PPFIA1 / RFU, MAT2A / Fold change vs veh, MAT2A / RFU, CCT5 / Fold change vs veh, CCT5 / RFU, WDR92 / Fold change vs veh, WDR92 / RFU, CUX1 / Fold change vs veh, CUX1 / RFU, TTC7A / Fold change vs veh, TTC7A / RFU, TMEM135 / Fold change vs veh, TMEM135 / RFU, DEPTOR / Fold change vs veh, DEPTOR / RFU, CPM / Fold change vs veh, CPM / RFU, DNAJB6 / Fold change vs veh, DNAJB6 / RFU, CACNA2D3 / Fold change vs veh, CACNA2D3 / RFU, DTX4 / Fold change vs veh, DTX4 / RFU, TFCP2 / Fold change vs veh, TFCP2 / RFU, GMCL1 /// GMCL1P1 / Fold change vs veh, GMCL1 /// GMCL1P1 / RFU, AEBP2 / Fold change vs veh, AEBP2 / RFU, SNHG1 /// SNORD22 /// SNORD25 /// SNORD26 /// SNORD27 /// SNORD28 /// SNORD29 /// SNORD31 / Fold change vs veh, SNHG1 /// SNORD22 /// SNORD25 /// SNORD26 /// SNORD27 /// SNORD28 /// SNORD29 /// SNORD31 / Fold change (Aza/veh), C12orf56 (ProbeSet 11735607_a_at) / Fold change (ACY-1035/veh), C12orf56 (ProbeSet 11735607_a_at) / Fold change (Aza/veh), FGFR1OP (ProbeSet 11751329_s_at) / Fold change (ACY-1035/veh), FGFR1OP (ProbeSet 11751329_s_at) / Fold change (Aza/veh), VPS36 (ProbeSet 11739960_a_at) / Fold change (ACY-1035/veh), VPS36 (ProbeSet 11739960_a_at) / RFU SYPL1 (11715823_x_at) / Fold change /veh SYPL1 (11715823_x_at) / RFU IGFBP7 (11715501_s_at) / Fold change /veh IGFBP7 (11715501_s_at) / RFU REEP3 (11722064_at) / Fold change /veh REEP3 (11722064_at) / RFU IGLL1 (11728026_x_at) / Fold change /veh IGLL1 (11728026_x_at): dose or concentration left out as unconfirmed",
  "settings": "ProbeSet 11744854_x_at; LIST B",
  "data": [
    {"smiles": "Nc1ncn([C@@H]2O[C@H](CO)[C@@H](O)[C@H]2O)c(=O)n1", "note": "[azacitidine]", "values": [
      {"measurement": "RFU, ZNF28", "value": 60.82, "unit": "RFU"}
    ]}
  ]
}
